In BindingDB's records for doi:10.1016/j.bmcl.2010.09.117 (University of London, 2010) one finds EC50 data, which are given here for 1 molecule.

As a reminder, the EC50 is the concentration giving half of the maximal effect.

This experiment deals with Signal transducer and activator of transcription 3 (Homo sapiens, UniProt P40763). In words: Inhibition of STAT3 in human HeLa cells by luciferase reporter assay. For orientation: A reporter such as luciferase makes a cellular process visible.
Sequence of Signal transducer and activator of transcription 3 (P40763 whole entry): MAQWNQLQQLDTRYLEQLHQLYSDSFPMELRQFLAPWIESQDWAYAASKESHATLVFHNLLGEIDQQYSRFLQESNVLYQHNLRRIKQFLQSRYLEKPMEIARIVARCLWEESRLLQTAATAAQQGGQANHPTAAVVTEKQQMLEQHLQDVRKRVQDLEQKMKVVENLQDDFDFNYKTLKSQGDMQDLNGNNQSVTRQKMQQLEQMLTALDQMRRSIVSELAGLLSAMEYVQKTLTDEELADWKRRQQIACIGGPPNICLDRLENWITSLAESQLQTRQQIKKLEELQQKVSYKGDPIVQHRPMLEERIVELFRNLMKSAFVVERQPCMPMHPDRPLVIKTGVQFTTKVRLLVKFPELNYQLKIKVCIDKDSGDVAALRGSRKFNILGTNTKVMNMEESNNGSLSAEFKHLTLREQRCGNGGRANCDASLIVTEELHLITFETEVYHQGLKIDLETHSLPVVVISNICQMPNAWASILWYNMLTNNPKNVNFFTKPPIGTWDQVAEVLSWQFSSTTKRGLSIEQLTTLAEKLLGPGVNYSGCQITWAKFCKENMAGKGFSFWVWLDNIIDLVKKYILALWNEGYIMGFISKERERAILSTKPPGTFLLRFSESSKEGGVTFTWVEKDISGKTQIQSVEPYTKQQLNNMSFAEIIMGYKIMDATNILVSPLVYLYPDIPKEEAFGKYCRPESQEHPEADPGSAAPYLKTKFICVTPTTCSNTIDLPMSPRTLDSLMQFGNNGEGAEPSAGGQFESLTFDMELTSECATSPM

`Cc1ccc(-c2sc(C(=O)NCc3cccs3)cc2S(=O)(=O)N2CCCC2)cc1` [4-(pyrrolidin-1-ylsulfonyl)-N-(thiophen-2-ylmethyl)-5-p-tolylthiophene-2-carboxamide] gave an EC50 of 15 µM.
